Patent publication US20230286927A1, “2-PHENYLBENZOTRIAZOL-5-AMINE DERIVATIVES FOR THE TREATMENT AND PROPHYLAXIS OF HEPATITIS B VIRUS (HBV) INFECTION” (priority 2020, published 2023)

Experiments:
[1] = Cytotoxicity in PHH natural infection assay (Cell Counting Kit-8); type: cell-based; conditions: HBV-infected primary human hepatocytes, CCK8
Procedure: (§1) Detailed procedures regarding primary human hepatocyte (PHH) HBV natural infection assay are described as below. One tube of frozen PHH (10 million cells) is thawed in 37° C. water bath and then transferred to 20 mL of PHH thawing medium (Sigma, InVitroGRO HT Medium, Cat. S03319) with gently mixing. The cells were then centrifuged at […] for 5 min, the supernatant was discarded and the tube was refilled with 25 mL of PHH plating medium (Sigma, InVitroGRO CP Medium, Cat. S03317). The tube was shaken very gently to re-suspend all cells, and then 50 μl of cells were transferred to each well 384-well collagen I coated plate with appropriate liquid handling equipment, e.g. Integra VIAFLO384 or Agilent Bravo. The cells were then cultured for 24 hours in a cell incubator. For HBV infection, after PHH attachment on the culture plate, the plating medium was removed and replenished with PHH culture medium containing HBV virus. The PHH culture medium was prepared with Dulbecco's Modified Eagle Medium (DMEM)/F12 (1:1 in volume ratio) containing 10% fetal bovine serum (Gibco, Cat. 10099141), 5 ng/mL human epidermal growth factor (Gibco, Cat.PHG031IL), 20 ng/mL dexamethasone (Sigma, Cat.D4902-100 mg), 250 ng/mL human recombinant insulin (Gibco, Cat.41400045) and 100 U/mL penicillin. HBV virus at 200 genome equivalent (GE) per cell with 4% PEG8000 (Sigma, Cat.P1458) containing culture medium were added to the PHH culture medium for infection. The cells were then cultured for 24 hours in cell incubator. Then the cell culture supernatant was removed. The HBV-infected PHH were cultured with sandwich culture method with PHH culture medium containing 1% DMSO and 0.25 mg/mL matrix gel for 72 hours. The supernatant was then refreshed with PHH culture medium containing different concentrations of testing compounds for two times with 72-hour interval. At the end of treatment, the supernatant was collected for viral markers measurements, including HBsAg, HBeAg, HBV DNA and cytotoxicity. HBsAg and HBeAg were detected using alphalisa method using their specific antibodies. For HBV DNA detection, HBV DNA Quantitative Fluorescence Diagnostic Kit (Sansure Biotech Inc.) was used following the manufacture's protocol. Cytotoxicity was determined using Cell Counting Kit-8 (CCK8, Dojindo Molecular Technologies, Inc.).

HBsAg = experiment: PHH natural infection assay, HBsAg (alphalisa); type: cell-based, HBV; conditions: Hepatitis B virus, Hepatocyte, 72 h, read-out: HBsAg IC50
Procedure: as §1
(§2) The compounds of the present invention were tested for their capacity to inhibit HBsAg and HBeAg as described herein.

HBeAg = experiment: PHH natural infection assay, HBeAg (alphalisa); type: cell-based, HBV; conditions: Hepatitis B virus, Hepatocyte, 72 h, read-out: HBeAg IC50
Procedure: as §1, §2

SMILES	CC50 at 144 h [1] [µM]	IC50 (HBsAg) [µM]	IC50 (HBeAg) [µM]
O=C(Nc1ccc2nn(-c3ccc(F)cc3)nc2c1)C1CCOC1 (stereo not drawn) [Example 40, N-[2-(4-fluorophenyl)benzotriazol-5-yl]tetrahydrofuran-3-carboxamide]	> 100	6.66	6.76
O=C(Nc1ccc2nn(-c3ccc(F)cc3)nc2c1)C1CCCC1 [Example 43, N-[2-(4-fluorophenyl)benzotriazol-5-yl]cyclopentanecarboxamide]	> 100	8.2	12.8
COCCCNc1ccc2nn(-c3ccc(F)cc3)nc2c1 [Example 22, 2-(4-Fluorophenyl)-N-(3-methoxypropyl)benzotriazol-5-amine]	> 100	3.27	6.4
Fc1ccc(-n2nc3ccc(NC4CCOC4)cc3n2)cc1 (stereo not drawn) [Example 21, 2-(4-Fluorophenyl)-N-tetrahydrofuran-3-yl-benzotriazol-5-amine]	> 100	9.74	10.6
CN(C)c1ccc2nn(-c3ccc(Cl)cc3)nc2c1 [Example 33, 2-(4-Chlorophenyl)-N,N-dimethyl-benzotriazol-5-amine]	> 100	4	3.71
COCCNc1ccc2nn(-c3ccc(Cl)cc3)nc2c1 [Example 15, 2-(4-Chlorophenyl)-N-(2-methoxyethyl)benzotriazol-5-amine]	> 100	3.71	2.36
COc1ccc(-n2nc3ccc(N)cc3n2)cc1 [Example 3, 2-(4-Methoxyphenyl)benzotriazol-5-amine]	> 100	1.5	1.7
CCCNc1ccc2nn(-c3ccc(Cl)cc3)nc2c1 [Example 14, 2-(4-Chlorophenyl)-N-propyl-benzotriazol-5-amine]	> 100	2.92	3.97
Nc1ccc2nn(-c3ccc(F)cc3)nc2c1 [Example 4, 2-(4-Fluorophenyl)benzotriazol-5-amine]	> 100	5.04	5.29
Cc1nc(Nc2ccc3nn(-c4ccc(Cl)cc4)nc3c2)sc1C [Example 65, N-[2-(4-chlorophenyl)benzotriazol-5-yl]-4,5-dimethyl-thiazol-2-amine]	> 100	2.67	2.91
Nc1ccc2nn(-c3cccc(F)c3)nc2c1 [Example 5, 2-(3-Fluorophenyl)benzotriazol-5-amine]	> 100	3.57	6.72
CN(C)C(=S)Nc1ccc2nn(-c3ccc(Cl)cc3)nc2c1 [Example 61, 3-[2-(4-Chlorophenyl)benzotriazol-5-yl]-1,1-dimethyl-thiourea]	> 100	0.79	1.22
O=C(NC(=S)Nc1ccc2nn(-c3ccc(Cl)cc3)nc2c1)C1CCCC1 [Example 56, N-[[2-(4-chlorophenyl)benzotriazol-5-yl]carbamothioyl]cyclopentanecarboxamide]	> 100	3.45	7.5
Cc1cc2nn(-c3ccc(Cl)cc3)nc2cc1NC(=S)NC(=O)c1ccccc1 [Example 59, N-[[2-(4-chlorophenyl)-6-methyl-benzotriazol-5-yl]carbamothioyl]benzamide]	> 100	1.11	3.04
CCN(C)c1ccc2nn(-c3ccc(Cl)cc3)nc2c1 [Example 36, 2-(4-Chlorophenyl)-N-ethyl-N-methyl-benzotriazol-5-amine]	> 100	4.03	4.45
Cc1csc(Nc2ccc3nn(-c4ccc(Cl)cc4)nc3c2)n1 [Example 64, N-[2-(4-chlorophenyl)benzotriazol-5-yl]-4-methyl-thiazol-2-amine]	> 100	1.42	3.04

SMILES	CC50 at 144 h [1] [µM]	IC50 (HBsAg) [µM]	IC50 (HBeAg) [µM]
O=C(Nc1ccc2nn(-c3ccc(Cl)cc3)nc2c1)C1COCCO1 (stereo not drawn) [Example 47, N-[2-(4-chlorophenyl)benzotriazol-5-yl]-1,4-dioxane-2-carboxamide]	> 100	3.73	1.84
COCCNc1ccc2nn(-c3cccc(Cl)c3)nc2c1 [Example 18, 2-(3-Chlorophenyl)-N-(2-methoxyethyl)benzotriazol-5-amine]	> 100	4.5	6.83
CC(C)CS(=O)(=O)c1ccc(-n2nc3ccc(N)cc3n2)cc1 [Example 10, 2-(4-Isobutylsulfonylphenyl)benzotriazol-5-amine]	> 100	9.57	5.56
Cc1cc2nn(-c3ccc(Cl)cc3)nc2cc1NC(N)=S [Example 60, [2-(4-Chlorophenyl)-6-methyl-benzotriazol-5-yl]thiourea]	> 100	2.28	2.31
O=C(Nc1ccc2nn(-c3ccc(Cl)cc3)nc2c1)C1CCOC1 (stereo not drawn) [Example 48, N-[2-(4-chlorophenyl)benzotriazol-5-yl]tetrahydrofuran-3-carboxamide]	> 100	4.81	3.12
CNC(=S)Nc1ccc2nn(-c3ccc(Cl)cc3)nc2c1 [Example 54, 1-[2-(4-chlorophenyl)benzotriazol-5-yl]-3-methyl-thiourea]	> 100	2.68	4.59
CCNc1ccc2nn(-c3ccc(Cl)cc3)nc2c1 [Example 13, 2-(4-Chlorophenyl)-N-ethyl-benzotriazol-5-amine]	> 100	1.3	1.6
Clc1ccc(-n2nc3ccc(NC4CCC4)cc3n2)cc1 [Example 29, 2-(4-Chlorophenyl)-N-cyclobutyl-benzotriazol-5-amine]	> 100	5.55	9.23
CC(=O)NC(=S)Nc1ccc2nn(-c3ccc(Cl)cc3)nc2c1 [Example 55, N-[[2-(4-chlorophenyl)benzotriazol-5-yl]carbamothioyl]acetamide]	> 100	2.97	5.1
Clc1ccc(-n2nc3ccc(NC4CCCC4)cc3n2)cc1 [Example 31, 2-(4-Chlorophenyl)-N-cyclopentyl-benzotriazol-5-amine]	> 100	8.86	11.9
FC(F)(F)CNc1ccc2nn(-c3ccc(Cl)cc3)nc2c1 [Example 28, 2-(4-Chlorophenyl)-N-(2,2,2-trifluoroethyl)benzotriazol-5-amine]	> 100	2.14	2.46
O=C(Nc1ccc2nn(-c3ccc(Cl)cc3)nc2c1)C1CCCO1 (stereo not drawn) [Example 50, N-[2-(4-chlorophenyl)benzotriazol-5-yl]tetrahydrofuran-2-carboxamide]	> 100	1.26	1.37
Clc1ccc(-n2nc3ccc(NCC4CCCO4)cc3n2)cc1 (stereo not drawn) [Example 27, 2-(4-Chlorophenyl)-N-(tetrahydrofuran-2-ylmethyl)benzotriazol-5-amine]	> 100	6.07	11.7
COc1cccc(-n2nc3ccc(N)cc3n2)c1 [Example 6, 2-(3-Methoxyphenyl)benzotriazol-5-amine]	> 100	2.44	4.1
O=C(Nc1ccc2nn(-c3ccc(Cl)cc3)nc2c1)C1CCCCO1 (stereo not drawn) [Example 46, N-[2-(4-chlorophenyl)benzotriazol-5-yl]tetrahydropyran-2-carboxamide]	> 100	2.68	1.14
